Test systems include NCI-H460 lung; NCI-H226 lung; U251 CNS; SF-268 CNS; HOP-92 NSCLC; LOX IMVI melanoma; A498 renal; RPMI-8226 leukemia; CCRF-CEM leukemia.
Holding throughout (experiment): DTP human tumour cell line panel, 48 h

The values below come from PubChem BioAssay (NCI).

Values joined by “and” are separate entries in the source; they are usually repeats but may differ in a detail not shown here. Identical values can stand only once.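 Tested at 5 concentrations; 48 h exposure; 96-well plates; endpoints linearly interpolated, else capped at highest concentration. At the GI50, growth is halved. TGI denotes the concentration required for complete inhibition of growth.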

One may read the GI50 as the concentration that inhibits growth by half. In general, TGI refers to the concentration giving total growth inhibition. High values mean less potent growth arrest, low ones more potent growth arrest.

For the compound `c1cc(OCCCCCOc2cccc(-c3nc4ccccc4[nH]3)c2)cc(-c2nc3ccccc3[nH]2)c1`, the GI50 with NCI-H460 lung was 2.6 µM; in the experiment on NCI-H226 lung it was 1.92 µM; with U251 CNS, 3.07 µM; with SF-268 CNS, 5.12 µM; with HOP-92 NSCLC, 1.09 µM; in the experiment on LOX IMVI melanoma, 2.19 µM. In the experiment on A498 renal, the GI50 was 2.61 µM. Further, the TGI with NCI-H460 lung was > 100 µM; with NCI-H226 lung, > 100 µM; with U251 CNS, > 100 µM; with SF-268 CNS, > 100 µM; in the experiment with HOP-92 NSCLC it was 4.68 µM; in the experiment on LOX IMVI melanoma, 6.84 µM. In addition, the concentration for total growth inhibition (TGI) with A498 renal came to 7.91 µM.

For the compound `O=C(CC1(O)C(=O)Nc2c(Cl)ccc(Cl)c21)c1ccc(Cl)cc1` (stereo unspecified), the total growth inhibition concentration (TGI) in the experiment with NCI-H460 lung was 61.9 µM; with NCI-H226 lung, > 100 µM; with U251 CNS, 84.5 µM; in the experiment on SF-268 CNS, 94 µM; with RPMI-8226 leukemia, 55.1 µM; in the experiment on HOP-92 NSCLC, 93.9 µM. Moreover, the figures for the TGI with LOX IMVI melanoma and with A498 renal were 37.3 µM and 82.5 µM, respectively.

Consider `O=C(/C=C(\[O-])c1ccccc1)CCCCCCC(=O)/C=C(\[O-])c1ccccc1.O=C(/C=C(\[O-])c1ccccc1)CCCCCCC(=O)/C=C(\[O-])c1ccccc1.O=C(/C=C(\[O-])c1ccccc1)CCCCCCC(=O)/C=C(\[O-])c1ccccc1.[Y+3].[Y+3]`, for which the GI50 is > 50 µM in the experiment on NCI-H460 lung; 39.2 µM in the experiment with NCI-H226 lung; 25.7 µM in the experiment with U251 CNS; 41.5 µM in the experiment on SF-268 CNS; 44.8 µM in the experiment with RPMI-8226 leukemia; 17 µM with HOP-92 NSCLC. Further, the GI50 with LOX IMVI melanoma and in the experiment with A498 renal was > 50 µM each time. Also, the TGI in the experiment on NCI-H460 lung, in the experiment on NCI-H226 lung, in the experiment on U251 CNS, with SF-268 CNS, in the experiment with RPMI-8226 leukemia and in the experiment on HOP-92 NSCLC was > 50 µM in each case. The TGI in the experiment with LOX IMVI melanoma and in the experiment on A498 renal was > 50 µM in each case.

In the case of `CN(C)c1ccc(/C=c2/sc3nc(=O)c(-c4ccccc4NC(=O)C(F)(F)F)nn3c2=O)cc1`, the TGI in the experiment on NCI-H460 lung, in the experiment with NCI-H226 lung, with CCRF-CEM leukemia, with U251 CNS, in the experiment on SF-268 CNS and in the experiment with HOP-92 NSCLC was > 100 µM throughout. The TGI in the experiment with LOX IMVI melanoma was > 100 µM.

For the compound `C/C(=C\c1ccccc1)C(O)C(=O)c1nc2ccc(Cl)cc2[nH]c1=O` (stereo unspecified), the TGI in the experiment with NCI-H460 lung was > 100 µM; in the experiment with NCI-H226 lung it was > 100 µM; with CCRF-CEM leukemia it was 78.9 µM; with U251 CNS, > 100 µM; in the experiment on SF-268 CNS it was > 100 µM; in the experiment on RPMI-8226 leukemia, > 100 µM. Besides, the total growth inhibition concentration (TGI) in the experiment with LOX IMVI melanoma and in the experiment on A498 renal was > 100 µM throughout.

Turning to `CCCCC(C(=O)C(=O)Nc1ccccc1CC)C(=O)C(C)C` (stereo unspecified), the TGI in the experiment with NCI-H460 lung, in the experiment with NCI-H226 lung, in the experiment on CCRF-CEM leukemia, in the experiment with U251 CNS, in the experiment on SF-268 CNS and in the experiment with RPMI-8226 leukemia was > 100 µM in each case. Also, the TGI in the experiment with HOP-92 NSCLC, in the experiment on LOX IMVI melanoma and with A498 renal was > 100 µM throughout.

With `CC(=O)NC(CCCNC(=O)OCc1ccccc1)C(=O)NCc1ccccc1` (stereo unspecified), the TGI in the experiment on NCI-H460 lung, in the experiment with NCI-H226 lung, in the experiment with CCRF-CEM leukemia, in the experiment on U251 CNS, in the experiment on SF-268 CNS and with RPMI-8226 leukemia was > 100 µM each time. The TGI in the experiment with HOP-92 NSCLC, in the experiment on LOX IMVI melanoma and in the experiment on A498 renal was > 100 µM throughout.

Regarding `O=[N+]([O-])c1ccc(/C=C/c2ccc(/C=C/c3ccc([N+](=O)[O-])cc3[N+](=O)[O-])cc2)c([N+](=O)[O-])c1`, the TGI with NCI-H460 lung, with NCI-H226 lung, in the experiment on CCRF-CEM leukemia, in the experiment on U251 CNS, in the experiment with RPMI-8226 leukemia and in the experiment on A498 renal was > 100 µM in each case.

For `N#CC1(CCCCl)CCCCC1`, the TGI in the experiment on NCI-H460 lung, in the experiment on CCRF-CEM leukemia, in the experiment with U251 CNS, in the experiment with SF-268 CNS, in the experiment on HOP-92 NSCLC and in the experiment on LOX IMVI melanoma was > 100 µM in each case. For the same compound, the TGI in the experiment on A498 renal was > 100 µM.

On to `CCOC(=O)C1C(NC(N)=O)N(Cc2ccccc2)C(=O)N1Cc1ccccc1` (stereo unspecified), for which the TGI in the experiment on NCI-H460 lung was > 100 µM; in the experiment on CCRF-CEM leukemia it was > 100 µM; in the experiment with U251 CNS, 32 µM; in the experiment with SF-268 CNS, > 100 µM; with RPMI-8226 leukemia, > 100 µM; with HOP-92 NSCLC, > 100 µM. For the same compound, the TGI in the experiment on LOX IMVI melanoma is > 100 µM.

In the case of `N#Cc1c(CC(=O)O)cc(=O)n2c1[nH]c1ccccc12`, the TGI in the experiment with NCI-H460 lung, in the experiment on NCI-H226 lung, in the experiment on U251 CNS, with SF-268 CNS, with RPMI-8226 leukemia and in the experiment with LOX IMVI melanoma was > 100 µM in each case. Also, in the experiment on A498 renal, the TGI is > 100 µM.

With `O/N=C1/C(=C/c2ccc(OCc3ccccc3)cc2)CCCC1C(NO)c1ccc(OCc2ccccc2)cc1` (stereo unspecified), the TGI was > 100 µM in the experiment on NCI-H460 lung; > 100 µM with NCI-H226 lung; > 100 µM with CCRF-CEM leukemia; 33.4 µM in the experiment on U251 CNS; 63.5 µM with HOP-92 NSCLC; 24.5 µM in the experiment on LOX IMVI melanoma. In addition, in the experiment on A498 renal, the TGI was > 100 µM.

In the case of `CC(C)(C)C1CCC(O)(c2ccccc2)CC1` (stereo unspecified), the TGI in the experiment on NCI-H460 lung is > 100 µM and 55.8 µM; in the experiment on NCI-H226 lung it was > 100 µM and 43 µM; with CCRF-CEM leukemia it was > 100 µM; in the experiment with U251 CNS, > 100 µM and 32.3 µM; with RPMI-8226 leukemia it was > 100 µM and 66.6 µM; in the experiment with LOX IMVI melanoma it was > 100 µM and 30.3 µM. Further, the TGI with A498 renal is > 100 µM and 51.4 µM.

For `Cc1ccccc1NC(=O)CC(=O)NNCC(=O)Nc1nnc(-c2ccccc2)s1`, the TGI in the experiment with NCI-H460 lung was > 100 µM; in the experiment on NCI-H226 lung, > 100 µM; with U251 CNS it was > 100 µM; with SF-268 CNS, > 100 µM; in the experiment with RPMI-8226 leukemia it was 75.1 µM; in the experiment with LOX IMVI melanoma, > 100 µM. Moreover, the TGI in the experiment with A498 renal was > 100 µM.

For `CNS(=O)(=O)NNS(=O)(=O)c1ccc(C)cc1`, the TGI in the experiment on NCI-H460 lung, in the experiment on CCRF-CEM leukemia, with SF-268 CNS, with RPMI-8226 leukemia, with HOP-92 NSCLC and in the experiment with A498 renal was > 100 µM each time.

In the case of `O=C1Nc2ccc(Cl)cc2/C1=N/c1nc(-c2ccc(Cl)cc2)cs1`, the GI50 was 2.28 µM in the experiment on CCRF-CEM leukemia, 1.7 µM with U251 CNS, 1.29 µM with SF-268 CNS and 1.8 µM with A498 renal. The TGI in the experiment with CCRF-CEM leukemia was > 100 µM; with U251 CNS it was 4.65 µM; in the experiment on SF-268 CNS it was 4.41 µM; with A498 renal, 4.98 µM.

For `ON1CCc2c([nH]c3ccccc23)C1c1ccc(Cl)cc1` (stereo unspecified), the TGI was 73 µM in the experiment with NCI-H226 lung; 93.8 µM with CCRF-CEM leukemia; 29.8 µM in the experiment on U251 CNS; > 100 µM with SF-268 CNS; 84.3 µM with RPMI-8226 leukemia; 41.1 µM with HOP-92 NSCLC. Also, the TGI in the experiment on LOX IMVI melanoma was 37.4 µM; in the experiment with A498 renal, > 100 µM.

With `CC(C)(C)C1CC[C@H]2c3c([nH]c4ccccc34)[C@H]3C(=O)N(c4ccc(F)cc4)C(=O)[C@H]3[C@H]2C1` (stereo partly specified), the TGI in the experiment with NCI-H460 lung turned out to be 26.4 µM; with NCI-H226 lung it was 35.3 µM; in the experiment on CCRF-CEM leukemia, 35.5 µM; in the experiment on U251 CNS, 20.8 µM; in the experiment on SF-268 CNS, 30.8 µM; in the experiment with HOP-92 NSCLC, 48.1 µM. Further, the values for the TGI in the experiment on LOX IMVI melanoma and in the experiment on A498 renal were 35.2 µM and 45.7 µM, respectively.

Take `CN(C)c1ccc(/C=C2\CCc3ccccc3C2=O)cc1Br`: the TGI in the experiment on NCI-H460 lung was > 100 µM; in the experiment with NCI-H226 lung, > 100 µM; in the experiment with CCRF-CEM leukemia, > 100 µM; with U251 CNS, > 100 µM; in the experiment with SF-268 CNS, > 100 µM; in the experiment with RPMI-8226 leukemia it was 72.9 µM. In addition, the TGI with HOP-92 NSCLC and in the experiment on LOX IMVI melanoma was > 100 µM throughout.

As for `CN(C)CCNC(=O)c1cccc2c1nc(-c1cccnc1)c1ccccc12`, the TGI with NCI-H460 lung came out at 12.5 µM; in the experiment with NCI-H226 lung, 16.5 µM; with CCRF-CEM leukemia, 43.5 µM; with U251 CNS, 24 µM; in the experiment with SF-268 CNS, 22.2 µM; in the experiment on HOP-92 NSCLC, 19.1 µM. Moreover, the values for the TGI in the experiment on LOX IMVI melanoma and in the experiment on A498 renal were 12.6 µM and 15.7 µM, respectively.

Consider `CC(C)CCCC(C)C1CCC2C3CC([N+](=O)[O-])=C4CC(O)CCC4(C)C3CCC12C` (stereo unspecified), for which the TGI came to 42.9 µM with CCRF-CEM leukemia; 30.4 µM in the experiment on U251 CNS; 62.9 µM with SF-268 CNS; 46.9 µM with RPMI-8226 leukemia; 46.6 µM with HOP-92 NSCLC; 36.6 µM in the experiment with LOX IMVI melanoma. Moreover, the TGI in the experiment with A498 renal was found to be 40.6 µM.

Regarding `O=C1c2ccccc2C2(O)N(c3ccccc3)C(=S)N(c3ccccc3)C12O` (stereo unspecified), the TGI in the experiment with NCI-H460 lung, in the experiment on NCI-H226 lung, in the experiment on CCRF-CEM leukemia, in the experiment on U251 CNS, in the experiment on SF-268 CNS and with RPMI-8226 leukemia was > 100 µM in each case. The TGI with LOX IMVI melanoma and in the experiment with A498 renal was > 100 µM in each case.

As for `Cc1ccccc1NC(=O)C1C(=O)N(c2ccccc2C)C(=O)/C1=N\NC(N)=O` (stereo unspecified), the TGI with NCI-H460 lung, in the experiment with CCRF-CEM leukemia, with U251 CNS, in the experiment with SF-268 CNS, in the experiment with HOP-92 NSCLC and in the experiment with A498 renal was > 100 µM in each case.
